“And” between values parts separate entries of the source, which are not always exact repeats. Identical values can stand only once. Square brackets hold non-standard residues; d marks the D form. Peptide text beside a SMILES is read from it. * marks the point of attachment. Dolaproine = CO[C@@H]([C@@H]1CCCN1)[C@@H](C)C(=O)O; Dil = CC[C@H](C)[C@H](NC)[C@@H](CC(=O)O)OC; X1 = C[C@@H](N*)[C@@H](O)c1ccccc1; NMeV = CN[C@H](C(=O)O)C(C)C
Legend:
[1] = Body weight, mortality and signs of overt toxicity in NCI-H526 implanted female nu/nu mice; type: in vivo, mouse; conditions: for Body Weight (g), Mean: group mean; for Body Weight (g), individual animal No. 1-8: single mice; for Body Weight / Body Weight (g): individual mice, 0.191 mg/kg
Method: In a xenograft tumor model of human small cell lung cancer, viable NCI-H526 stage E carcinoma; variant small cell lung cancer cells (ATCC CRL-5811), were subcutaneously (SC) implanted (1×10^6 cells with matrigel (1:0.8) in 0.2 mL/mouse) into the right flank of female nu/nu mice. Tumor implanted mice were divided into five treatment groups, each group containing eight animals, and test agent administrations were initiated one day after cell implantation (denoted as Day 1).
Female nu/nu nude, aged 6-7 weeks, were obtained from BioLasco Taiwan (under Charles River Laboratories Licensee) and used. The animals were housed in individually ventilated cages (IVC, 36 Mini Isolator system). The allocation for 5 animals was 27×20×14 in cm. All animals were maintained in a hygienic environment under controlled temperature (20-24° C.) and humidity (30-70%) with 12-hour light/dark cycle. Free access to standard lab diet [MFG (Oriental Yeast Co., Ltd., Japan)] and autoclaved tap water were granted. All aspects of this work including housing, experimentation, and animal disposal were performed in general accordance with the “Guide for the Care and Use of Laboratory Animals: Eighth Edition” (National Academies Press, Washington, D.C., 2011) in our AAALAC-accredited laboratory animal facility. In addition, the animal care and use protocol was reviewed and approved by the IACUC at Eurofins Panlabs Taiwan, Ltd.
(§1) The tumor volumes, body weights, mortality, and signs of overt toxicity were monitored and recorded twice weekly for 45 days. Tumor growth inhibition was calculated as T/C (treatment/control)×100%. A T/C value≤42% compared to that of the vehicle control group was considered significant anti-tumor activity. Two-way ANOVA followed by Bonferroni test was used to ascertain the statistically significant significance of groups compared to respective vehicle control (*p<0.05).

[2] = Body weight, mortality and signs of overt toxicity in NCI-N87 implanted female nu/nu mice; type: in vivo, mouse
Method: In a xenograft tumor model of human gastric carcinoma, viable NCI-N87 (ATCC CRL-5822) cells were subcutaneously (SC) implanted (2.5×10^6 cells/mL with matrigel (1:1) at 0.2 mL/mouse) into the right flank of female nu/nu mice. Tumor implanted mice were divided into seven treatment groups, each group containing eight animals, and one group containing five animals, and dose administrations were initiated one day after cell implantation (denoted as Day 1).
Female nude (nu/nu) mice aged 5-6 weeks obtained from BioLasco Taiwan (under Charles River Laboratories Licensee) were used. The animals were housed in individually ventilated cages (IVC, 36 Mini Isolator system). The allocation for 3 animals was 27×20×14 in cm. All animals were maintained in a hygienic environment under controlled temperature (20-24° C.) and humidity (30%-70%) with 12-hour light/dark cycle. Free access to standard lab diet [MFG (Oriental Yeast Co., Ltd., Japan)] and autoclaved tap water in bottles were granted. All aspects of this work including housing, experimentation, and animal disposal were performed in general accordance with the “Guide for the Care and Use of Laboratory Animals: Eighth Edition” (National Academies Press, Washington, D.C., 2011) in our AAALAC-accredited laboratory animal facility. In addition, the animal care and use protocol was reviewed and approved by the IACUC at Eurofins Panlabs Taiwan, Ltd.
as §1, with “100” for “45”

[3] = Day 1, NCI-H526 xenograft, female nu/nu mice, OBI-999/OBI-888 10 mg/kg IV, MMAE 0.191 mg/kg IP, once weekly x 4
[4] = Day 4, NCI-H526 xenograft, female nu/nu mice, OBI-999/OBI-888 10 mg/kg IV, MMAE 0.191 mg/kg IP, once weekly x 4
[5] = Day 15, NCI-H526 xenograft, female nu/nu mice, OBI-999/OBI-888 10 mg/kg IV, MMAE 0.191 mg/kg IP, once weekly x 4
[6] = Day 18, NCI-H526 xenograft, female nu/nu mice, OBI-999/OBI-888 10 mg/kg IV, MMAE 0.191 mg/kg IP, once weekly x 4
[7] = Day 31, NCI-H526 xenograft, female nu/nu mice, OBI-999/OBI-888 10 mg/kg IV, MMAE 0.191 mg/kg IP, once weekly x 4
[8] = Day 39, NCI-H526 xenograft, female nu/nu mice, OBI-999/OBI-888 10 mg/kg IV, MMAE 0.191 mg/kg IP, once weekly x 4
[9] = Gr. 8, 0.191 mg/kg × 4 IP once weekly, Day 57
[10] = Gr. 8, 0.191 mg/kg × 4 IP once weekly, Day 60
[11] = Gr. 8, 0.191 mg/kg × 4 IP once weekly, Day 64
[12] = Gr. 8, 0.191 mg/kg × 4 IP once weekly, Day 67
[13] = Gr. 8, 0.191 mg/kg × 4 IP once weekly, Day 70
[14] = Gr. 8, 0.191 mg/kg × 4 IP once weekly, Day 74
[15] = Gr. 8, 0.191 mg/kg × 4 IP once weekly, Day 78
[16] = Gr. 8, 0.191 mg/kg × 4 IP once weekly, Day 81
[17] = Gr. 8, 0.191 mg/kg × 4 IP once weekly, Day 85
[18] = 0.191 mg/kg × 4 IP once weekly, group mean
[19] = 0.191 mg/kg × 4 IP once weekly, individual mouse

CC[C@H](C)[C@@H]([C@@H](CC(=O)N1CCC[C@H]1[C@H](OC)[C@@H](C)C(=O)N[C@H](C)[C@@H](O)c1ccccc1)OC)N(C)C(=O)[C@@H](NC(=O)[C@@H](NC)C(C)C)C(C)C [MMAE, monomethyl auristatin E] (H-[NMeV]V[Dil][Dolaproine]-X1)
Body Weight (g), Mean [1, 3]: 23.9 g | Body Weight (g), individual animal No. 1-8 [1, 3]: 24 g (3×) and 25 g and 26 g and 23 g (2×) and 22 g | Body Weight (g), Mean [1, 4]: 23.6 g | Body Weight (g), individual animal No. 1-8 [1, 4]: 22 g and 25 g and 27 g and 21 g and 23 g (2×) and 24 g (2×) | Body Weight (g), individual animal No. 1-8 ([1]; Day 8, NCI-H526 xenograft, female nu/nu mice, OBI-999/OBI-888 10 mg/kg IV, MMAE 0.191 mg/kg IP, once weekly x 4): 24 g (2×) and 26 g and 28 g and 21 g and 25 g (2×) and 23 g | Body Weight (g), individual animal No. 1-8 ([1]; Day 11, NCI-H526 xenograft, female nu/nu mice, OBI-999/OBI-888 10 mg/kg IV, MMAE 0.191 mg/kg IP, once weekly x 4): 24 g (3×) and 28 g (2×) and 23 g (2×) and 25 g | Body Weight (g), Mean [1, 5]: 25.4 g | Body Weight (g), individual animal No. 1-8 [1, 5]: 25 g (2×) and 28 g (2×) and 24 g (2×) and 23 g and 26 g | Body Weight (g), Mean [1, 6]: 25.4 g | Body Weight (g), individual animal No. 1-8 [1, 6]: 25 g (3×) and 28 g (2×) and 24 g (3×) | Body Weight (g), individual animal No. 1-8 ([1]; Day 22, NCI-H526 xenograft, female nu/nu mice, OBI-999/OBI-888 10 mg/kg IV, MMAE 0.191 mg/kg IP, once weekly x 4): 24 g (2×) and 28 g (2×) and 25 g (4×) | Body Weight (g), individual animal No. 1-8 ([1]; Day 25, NCI-H526 xenograft, female nu/nu mice, OBI-999/OBI-888 10 mg/kg IV, MMAE 0.191 mg/kg IP, once weekly x 4): 26 g (3×) and 30 g and 29 g and 25 g (3×) | Body Weight (g), individual animal No. 1-8 ([1]; Day 29, NCI-H526 xenograft, female nu/nu mice, OBI-999/OBI-888 10 mg/kg IV, MMAE 0.191 mg/kg IP, once weekly x 4): 25 g and 32 g and 31 g and 26 g (2×) and 27 g (3×) | Body Weight (g), Mean [1, 7]: 27.8 g | Body Weight (g), individual animal No. 1-8 [1, 7]: 25 g and 32 g (2×) and 26 g (2×) and 27 g (3×) | Body Weight (g), individual animal No. 1-8 ([1]; Day 36, NCI-H526 xenograft, female nu/nu mice, OBI-999/OBI-888 10 mg/kg IV, MMAE 0.191 mg/kg IP, once weekly x 4): 26 g (2×) and 33 g (2×) and 28 g and 27 g and 29 g (2×) | Body Weight (g), Mean [1, 8]: 30.3 g | Body Weight (g), individual animal No. 1-8 [1, 8]: 27 g (3×) and 38 g and 34 g and 30 g (2×) and 29 g | Body Weight [1, 9]: 27 g (4×) and 24 g and 26 g | Body Weight (g) [1, 9]: died | Body Weight [1, 10]: 27 g (2×) and 25 g and 28 g (2×) and 26 g | Body Weight (g) [1, 10]: died | Body Weight (g), Mean [1, 11]: 26.7 g | Body Weight [1, 11]: 27 g (4×) and 24 g and 28 g | Body Weight (g) [1, 11]: died | Body Weight [1, 12]: 27 g (2×) and 25 g and 28 g (3×) | Body Weight (g) [1, 12]: died | Body Weight [1, 13]: 26 g (2×) and 25 g and 27 g (3×) | Body Weight (g) [1, 13]: died | Body Weight [1, 14]: 27 g and 24 g (2×) and 28 g (3×) | Body Weight (g) [1, 14]: died | Body Weight [1, 15]: 28 g (4×) and 25 g (2×) | Body Weight (g) [1, 15]: died | Body Weight [1, 16]: 28 g (3×) and 25 g and 27 g and 24 g | Body Weight (g) [1, 16]: died | Body Weight [1, 17]: 27 g and 25 g and 28 g (2×) and 29 g and 23 g | Body Weight (g) [1, 17]: died | Body Weight (g), Mean ([1]; Gr. 8, 0.191 mg/kg × 4 IP once weekly, Day 100): 27.9 g | Mortality (animal entered as died in tumor volume table) ([2]; 0.191 mg/kg × 4 IP (Once weekly), mouse No. 6, Day 57-Day 100): died | Body Weight Day 1, Mean [2, 18]: 21.9 g | Body Weight Day 4, Mean [2, 18]: 20.4 g | Body Weight Day 8, Mean [2, 18]: 22.1 g | Body Weight Day 11, Mean [2, 18]: 22.6 g | Body Weight Day 15, Mean [2, 18]: 23.4 g | Body Weight Day 18, Mean [2, 18]: 23.6 g | Body Weight Day 25, Mean [2, 18]: 24.0 g | Body Weight Day 32, Mean [2, 18]: 25.1 g | Body Weight Day 36, Mean [2, 18]: 25.1 g | Body Weight Day 50, Mean [2, 18]: 26.0 g | Body Weight Day 1 [2, 19]: 20 g (2×) and 22 g (3×) and 24 g (2×) and 21 g | Body Weight Day 4 [2, 19]: 18 g and 19 g (2×) and 22 g and 21 g and 20 g and died and 24 g | Body Weight Day 8 [2, 19]: 22 g (3×) and 23 g (2×) and died and 24 g and 19 g | Body Weight Day 11 [2, 19]: 22 g (2×) and 23 g (2×) and 25 g and 24 g and died and 19 g | Body Weight Day 15 [2, 19]: 24 g (2×) and 23 g (3×) and 25 g and died and 22 g | Body Weight Day 18 [2, 19]: 24 g (3×) and 22 g (2×) and 23 g and 26 g and died | Body Weight Day 22 [2, 19]: 24 g (3×) and 22 g and 25 g (3×) and died | Body Weight Day 25 [2, 19]: 24 g (4×) and 22 g and 25 g (2×) and died | Body Weight Day 29 [2, 19]: 25 g (3×) and 24 g and 26 g (3×) and died | Body Weight Day 32 [2, 19]: 25 g (2×) and 23 g and 24 g and 27 g and 26 g (2×) and died | Body Weight Day 36 [2, 19]: 26 g (2×) and 24 g and 25 g (4×) and died | Body Weight Day 39 [2, 19]: 26 g (6×) and 24 g and died | Body Weight Day 43 [2, 19]: 26 g (6×) and 24 g and died | Body Weight Day 46 [2, 19]: 26 g (3×) and 25 g and 27 g (3×) and died | Body Weight Day 50 [2, 19]: 26 g (4×) and 24 g and 27 g (2×) and died | Body Weight Day 53 [2, 19]: 27 g (4×) and 24 g and died and 26 g and 28 g | Mortality (animal recorded as died in tumor volume table) ([2]; animal No. 6, Day 4-Day 25, 0.191 mg/kg × 4 IP once weekly): died

From patent publication US11000601B2, “Conjugated biological molecules, pharmaceutical compositions and methods” (OBI Pharma, Inc., priority 2016, dated 2021)
